# Literature values as cited in PMC6311893, “Computational prediction of plasma protein binding of cyclic peptides from small molecule experimental data using sparse modeling techniques” (BMC Bioinformatics, 2018).
# Tested on: plasma protein
# Conditions: cited from earlier work
row,Compound,PPB (fb)
1,C=C1/C(=C\C=C2/CCC[C@]3(C)[C@@H]([C@H](C)CCCC(C)(C)O)CC[C@@H]23)C[C@@H](O)C[C@@H]1O [calcitriol],0.95

# Same assay, conditions: fraction bound to plasma protein; small molecule dataset, sheet 1-SM (Set Dte = test, Dtr = training); ref Ingle et al.; cited from earlier work
row,Compound,PPB (fb)
1,Clc1ccccc1C(c1ccccc1)(c1ccccc1)n1ccnc1 [clotrimazole],0.5
2,CC(C)C[C@H]1C(=O)N2CCC[C@H]2[C@]2(O)O[C@](NC(=O)[C@@H]3C=C4c5cccc6[nH]c(Br)c(c56)C[C@H]4N(C)C3)(C(C)C)C(=O)N12 [bromocriptine],0.95
3,CCCCC[C@H](O)/C=C/[C@H]1[C@H](O)CC(=O)[C@@H]1CCCCCCC(=O)O [alprostadil],0.92
4,CC(N/C(=N\C#N)Nc1ccncc1)C(C)(C)C (centres unmarked) [pinacidil],0.4
5,COc1cccc(-n2cc(C(=O)O)c(=O)c3cc(F)c(N4CCNCC4)cc32)c1 [5b(m-OCH3)],0.35
6,O=C(NCC1CCCCN1)c1cc(OCC(F)(F)F)ccc1OCC(F)(F)F (centres unmarked) [Flecainide],0.5
7,C/N=C(\NC)NCc1ccccc1 [bethanidine],0.1
8,CCCN1CCN(c2cc3c(cc2F)c(=O)c(C(=O)O)cn3-c2ccc(OC)cc2)CC1 [5cc (p-OCH3__ N- C3H7],0.54
9,COc1ccc(-n2cc(C(=O)O)c(=O)c3cc(F)c(N4CCN(C)CC4)cc32)cc1 [5ca (p-OCH3__N-CH3)],0.43
10,CCCSc1ccc2nc(NC(=O)OC)[nH]c2c1 [albendazole],0.7
11,O=C(O)Cc1ccccc1Nc1c(Cl)cccc1Cl [Diclofenac],0.995
12,Nc1c(Br)cc(Br)cc1CN[C@H]1CC[C@H](O)CC1 [ambroxol],0.9
13,CC1(C)O[C@@H]2C[C@H]3[C@@H]4C[C@H](F)C5=CC(=O)C=C[C@]5(C)[C@H]4[C@@H](O)C[C@]3(C)[C@]2(C(=O)CO)O1 [flunisolide],0.5
14,CN1CCN(C(c2ccccc2)c2ccccc2)CC1 [cyclizine],0.6
15,Cn1cnc([N+](=O)[O-])c1Sc1ncnc2nc[nH]c12 [azathioprine],0.25
16,CCOC(=O)OC(C)OC(=O)[C@@H]1N2C(=O)[C@@H](NC(=O)[C@H](N)c3ccccc3)[C@H]2SC1(C)C (some centres unmarked) [bacampicillin],0.2
17,C[C@]12C=CC(=O)C=C1C(Cl)=C[C@@H]1[C@@H]2[C@@H](O)C[C@@]2(C)[C@H]1CC[C@]2(O)C(=O)CO [cloprednol],0.8
18,CCN[C@H]1C[C@H](C)S(=O)(=O)c2sc(S(N)(=O)=O)cc21 [dorzolamide],0.3
19,COc1ccccc1-n1cc(C(=O)O)c(=O)c2cc(F)c(N3CCNCC3)cc21 [5a(o-OCH3)],0.29
20,O=C(OCCN1CCCCCC1)C(c1ccsc1)C1CCCCC1 (centres unmarked) [Cetiedil],0.74

# Same assay, conditions: fraction bound to plasma protein; small molecule dataset, sheet 1-SM, Set Dtr; ref Ingle et al.; cited from earlier work
row,Compound,PPB (fb)
1,COc1cccc2c1C(=O)c1c(O)c3c(c(O)c1C2=O)C[C@@](O)(C(=O)CO)C[C@@H]3O[C@H]1C[C@H](N)[C@@H](O)[C@H](C)O1 [Epirubicin],0.75
2,CO/N=C(\C(=O)N[C@@H]1C(=O)N2C(C(=O)O)=C(COC(N)=O)CS[C@H]12)c1ccco1 [Cefuroxime],0.32
3,Fc1ccc([C@@H]2CCNC[C@H]2COc2ccc3c(c2)OCO3)cc1 [Paroxetine],0.94
4,C[C@@H]1C[C@H]2[C@@H]3CCC4=CC(=O)C=C[C@]4(C)[C@@]3(F)[C@@H](O)C[C@]2(C)[C@@]1(O)C(=O)CO [Dexamethasone],0.68
5,C=CCc1ccccc1OCC(O)CNC(C)C (centres unmarked) [Alprenolol],0.81
6,CN(C)CCOc1ccc(/C(=C(/CCCl)c2ccccc2)c2ccccc2)cc1 [toremifene],0.99
7,COC(=O)CCc1ccc(OCC(O)CNC(C)C)cc1 (centres unmarked) [Esmolol],0.48
8,COCC(=O)Nc1c(I)c(C(=O)NCC(O)CO)c(I)c(C(=O)N(C)CC(O)CO)c1I (centres unmarked) [Iopromide],0.01
9,COc1cc2c(cc1OC)[C@@H](Cc1cc(OC)c(OC)c(OC)c1)[N+](C)(CCCOC(=O)CC/C=C/CCC(=O)OCCC[N+]1(C)CCc3cc(OC)c(OC)cc3[C@H]1Cc1cc(OC)c(OC)c(OC)c1)CC2 (some centres unmarked) [Mivacurium],0.3
10,CC(=O)N(CC(O)CO)c1c(I)c(C(=O)NCC(O)CO)c(I)c(C(=O)NCC(O)CO)c1I (centres unmarked) [Iohexol],0.02

# Same assay, conditions: fraction bound to plasma protein; small molecule dataset, sheet 1-SM; ref Ingle et al.; cited from earlier work
row,Compound,PPB (fb)
1,CC(=O)O[C@H]1C[C@@]2(C)[C@@H](C[C@@H](O)[C@H]3[C@@]4(C)CC[C@@H](O)[C@@H](C)[C@@H]4CC[C@@]32C)/C1=C(\CCC=C(C)C)C(=O)O [fusidic acid],0.95
2,CCCOC(C(=O)OC1CCN(C)CC1)(c1ccccc1)c1ccccc1 [propiverine],0.9
3,Nc1nc2c(c(=O)[nH]1)N(C=O)C(CNc1ccc(C(=O)N[C@@H](CCC(=O)O)C(=O)O)cc1)CN2 (some centres unmarked) [leucovorin],0.91
4,CC1OC(OC2CC(O)(C(C)O)Cc3c(O)c4c(c(O)c32)C(=O)c2ccccc2C4=O)CC(N)C1O (centres unmarked) [Idarubicinol],0.94
5,CO[C@H]1C[C@@H]2CC[C@@H](C)[C@@](O)(O2)C(=O)C(=O)N2CCCC[C@H]2C(=O)O[C@H]([C@H](C)C[C@@H]2CC[C@@H](O)[C@H](OC)C2)CC(=O)[C@H](C)/C=C(\C)[C@@H](O)[C@@H](OC)C(=O)[C@H](C)C[C@H](C)/C=C/C=C/C=C/1C [sirolimus],0.92
6,CCS(=O)(=O)CCn1c([N+](=O)[O-])cnc1C [Tinidazole],0.15
7,COC(C(=O)NC1C(=O)N2C1SC(C)(C)C2C(=O)O)c1ccc(Cl)c(F)c1 (centres unmarked) [penicillin44],0.83
8,CC(C(=O)O)c1ccc(CC2CCCC2=O)cc1 (centres unmarked) [loxoprofen],0.96
9,O=C1c2ccccc2C(=O)C1c1ccccc1 [phenindione],0.97
10,CC(NCCC(c1ccccc1)c1ccccc1)c1ccccc1 (centres unmarked) [fendiline],0.95
11,Nc1nnc(-c2cccc(Cl)c2Cl)c(N)n1 [lamotrigine],0.55
12,Cc1ccc(N(CC2=NCCN2)c2cccc(O)c2)cc1 [phentolamine],0.54
13,CC#C[C@]1(O)CC[C@H]2[C@@H]3CCC4=CC(=O)CCC4=C3[C@@H](c3ccc(N(C)C)cc3)C[C@@]21C [mifepristone],0.98
14,CCCN1C[C@H](CSC)C[C@@H]2c3cccc4[nH]cc(c34)C[C@H]21 [pergolide],0.9
15,CCc1cc(C(N)=S)ccn1 [ethionamide],0.3
16,CCOc1cnc2ccccc2c1C(=O)NC1C(=O)N2C1SC(C)(C)C2C(=O)O (centres unmarked) [penicillin78],0.7
17,CC(NCCc1ccc(O)cc1)C(O)c1ccc(O)cc1 (centres unmarked) [Ritodrine],0.33
18,O=C1[C@@H]2[C@H]3CC[C@H](C3)[C@@H]2C(=O)N1CCCCN1CCN(c2ncccn2)CC1 [tandospirone],0.3
19,O=C(OCC(O)CO)c1ccccc1Nc1ccnc2c(C(F)(F)F)cccc12 (centres unmarked) [floctafenine],0.85
20,CNC[C@H](O)c1ccc(O)c(O)c1 [epinephrine],0.5
21,CCCc1nc(C(C)(C)O)c(C(=O)O)n1Cc1ccc(-c2ccccc2-c2nnn[nH]2)cc1 [Olmesartan],0.99
22,CC(C(=O)NCCN1CCCC1)c1ccc(OS(=O)(=O)C(F)(F)F)cc1 (centres unmarked) [JMC_04],0.7
23,NC[C@H](O)c1ccc(O)c(O)c1 [norepinephrine],0.5
24,Cc1ccc(S(=O)(=O)NC(=O)NN2CC3CCCC3C2)cc1 (centres unmarked) [gliclazide],0.91
25,N[C@@H]1[C@H]2CN(c3nc4c(cc3F)c(=O)c(C(=O)O)cn4-c3ccc(F)cc3F)C[C@@H]12 [Trovafloxacin],0.81
26,CN1CC(=O)N2[C@H](c3ccc4c(c3)OCO4)c3[nH]c4ccccc4c3C[C@@H]2C1=O [tadalafil],0.94
27,C[C@]12CCC(=O)C=C1CC[C@H]1[C@@H]3CC[C@](O)(C(=O)CO)[C@@]3(C)C[C@H](O)[C@@]12F [fludrocortisone],0.75
28,CC(C)Cc1ccc(C(C)C(=O)NCCCN(C)C)cc1 (centres unmarked) [JMC_07],0.75

# Same assay, conditions: human, plasma; cited from earlier work
row,Compound,PPB (fb)
1,CC(C)C[C@H](NC(=O)[C@@H](COC(C)(C)C)NC(=O)[C@H](Cc1ccc(O)cc1)NC(=O)[C@H](CO)NC(=O)[C@H](Cc1c[nH]c2ccccc12)NC(=O)[C@H](Cc1cnc[nH]1)NC(=O)[C@@H]1CCC(=O)N1)C(=O)N[C@@H](CCCNC(=N)N)C(=O)N1CCC[C@H]1C(=O)NNC(N)=O [goserelin],0.2

# Same assay, conditions: plasma; cited from earlier work
row,Compound,PPB (fb)
1,C=CC1(O)CN2CCC1CC2C(O)c1ccnc2ccc(OC)cc12 (centres unmarked) [3-Hydroxy Quinidine],0.6
2,Cc1nnc2n1-c1ccc(Cl)cc1C(c1ccccc1Cl)=NC2 [Triazolam],0.89
3,CC(=O)OC1C(O)CC(OC2C(O)CC(OC3C(O)CC(OC4CCC5(C)C(CCC6C5CC(O)C5(C)C(C7=CC(=O)OC7)CCC65O)C4)OC3C)OC2C)OC1C (stereo not drawn) [beta-acetyldigoxin],0.15
4,CCCC(C)(COC(N)=O)COC(N)=O [Meprobamate],0.1
5,spironolactone,0.98
6,trichloroethanol,0.35
7,CCC1(CC)C(=O)NC(=O)NC1=O [barbital],0.1
8,polythiazide,0.85
9,Tetracycline,0.36
10,CN1C[C@H](C(=O)N[C@]2(C)O[C@@]3(O)[C@@H]4CCCN4C(=O)[C@H](Cc4ccccc4)N3C2=O)C=C2c3cccc4[nH]cc(c34)C[C@H]21 [Ergotamine],0.96
11,C[N+](C)(C)CCOC(=O)CCC(=O)OCC[N+](C)(C)C [succinylcholine],0.3
12,demeclocycline,0.54
13,Oc1cc(O)c2c(c1)O[C@H](c1ccc(O)c(O)c1)[C@H](O)[C@H]2c1c(O)cc(O)c2c1O[C@H](c1ccc(O)c(O)c1)[C@@H](O)C2 [procyanidin B1],0.73
14,CCN[C@@H](C)Cc1cccc(C(F)(F)F)c1 [Dexfenfluramine],0.34
15,N#CC(CCN1CCC(C(N)=O)(N2CCCCC2)CC1)(c1ccccc1)c1ccccc1 [Piritramide],0.94
16,CC(Cc1ccc(O)cc1)NCC(O)c1cc(O)cc(O)c1 (centres unmarked) [Fenoterol],0.47
17,mepacrine,0.9
